Measurements taken from patent US8609897B2, “Trifluoromethylsulfonamide gamma secretase inhibitor” (Merck Sharp & Dohme Corp., priority 2009, dated 2013).
Read-outs that look alike come from different tables or passages of the source. Each block holds one molecule with its values, some of them ahead of it.

Columns and labels:
[1] = test system: γ-secretase (APP processing), SH-SY5Y cells expressing amyloid β protein (SP4CT cells); experiment: APP processing, secreted Aβ40 and Aβ42 from SH-SY5Y (SP4CT) cells, AlphaLisa; conditions: cell based assay
Experimental: APP Processing (Assay Quantitates Secreted Aβ Analytes from Cell Lines):
The effect of compounds on the abundance of Aβ40 and Aβ42 peptides generated from SH-SY5Y cells expressing amyloid β protein (SP4CT cells) was determined by an AlphaLisa™ assay. Analogous to an ELISA assay, generation of signal in this AlphaLisa™ assay requires “donor” and “acceptor” beads to be brought in close proximity by specific antibody recognition of either Aβ40 or Aβ42 peptides. The assay was accomplished by removing media from compound-treated SP4CT cells to two different microplates, followed by the addition of donor beads conjugated with streptavidin binding a biotinylated anti-amyloid β monocolonal antibody (clone 408). Acceptor beads directly conjugated with anti-Aβ40 monoclonal antibody (G210) were added to one microplate and anti-Aβ42 monoclonal antibody (12F4) acceptor beads were added to the other. Abundance of Aβ40 and Aβ42 was directly proportional to the luminescent signal generated following excitation of donor beads by laser light.

[2] = test system: gamma secretase-dependent cleavage of the Notch protein, HeLa cells; experiment: Notch processing, split-luciferase assay in HeLa cells; type: cell-based; conditions: ratio HeLa Notch to SY5Y Aβ40
Source text: (§1) Notch Processing: (Assay Quantitates Notch Intracellular Domain Release in Cell Lines):
(§2) A “split-luciferase” assay is used to measure inhibition of gamma secretase-dependent cleavage of the Notch protein. In this assay, HeLa cells were made to express a Notch protein lacking its extracellular domain (NotchΔE) fused to an N-terminal fragment of luciferase. The same cells also expressed a C-terminal fragment of luciferase fused to the immunoglobulin J kappa recombination signal sequence binding protein (RBP). Upon NotchΔE cleavage by gamma secretase, a Notch intracellular domain (NICD)-N terminal luciferase protein is generated which translocates to the nucleus and binds the RBP-C terminal luciferase fusion, bringing two independently nonfunctional halves of luciferase together to form a functional luciferase enzyme. The activity of luciferase in these cells is directly proportional to the amount of gamma secretase-cleaved Notch. Luciferase activity is determined by the standard techniques of luciferin addition to lysed cells and measurement of total luminescence.

[3] = test system: T1, gamma secretase-dependent cleavage of the Notch protein, HeLa cells; experiment: as above; type: cell-based; conditions: cell based assay, HeLa cells, NotchΔE split-luciferase
T1 construct: HeLa Notch; other: cell based assay, HeLa cells, NotchΔE split-luciferase
Source text: as §1, §2

[4] = Pharmacokinetics in Sprague Dawley rats; type: in vivo; conditions: Rat; for AUC (Norm)(0-x) / clearance / half-life: 0.25 mg/kg; for clearance / half-life / bioavailability: Sprague Dawley, plasma; for clearance: intravenous; for bioavailability: 0.25 mg/kg IV or PO
Experimental: (§3) Pharmacokinetic parameters were determined in Sprague Dawley rats, Beagle dogs and Rhesus monkeys by dosing the compounds intravenously (IV) or orally (PO). A dose of 0.25 mg/kg was administered either IV or PO to each subject with a dosing solution of 0.25 mg/ml in a 30:70 v/v mixture of PEG400:40% Captisol®. Plasma samples were collected at 5 min. (IV only), 15 min., 30 min., 1 h, 2 h, 4 h, 6 h, 8 h, 24 h, 48 h, 72 h, 96 h, 120 h, 144 h, and 168 h. Samples were analyzed by LC-MS/MS (API5000™) to determine the concentration in plasma. Briefly, 50 μL plasma was precipitated with 200 μL acetonitrile containing an appropriate internal standard. Samples were filtered, 500 μL of water was added to each sample and 10 μL of this was injected on a C18 column (2.0 mm×30 mm, 3 μm particle size) and eluted using a gradient LC method with water containing 0.1% formic acid as the aqueous mobile phase, and acetonitrile containing 0.1% formic acid as the organic phase. Electrospray ionization with multiple reaction monitoring was used for MS/MS detection. Plasma concentration of the compounds was determined using a standard curve that was prepared similar to the samples in the respective matrix. Non-compartmental analysis was performed using Watson 7.2 to generate the PK parameters.

[5] = Pharmacokinetics in Beagle dogs; type: in vivo; conditions: Dog; for clearance / half-life / bioavailability: Beagle, plasma; for clearance: intravenous; for clearance / half-life / AUC (Norm)(0-x): 0.25 mg/kg; for bioavailability: 0.25 mg/kg IV or PO
Experimental: as §3

[6] = molecular target: semi-purified γ-secretase; experiment: In vitro APP processing (C100Flag substrate, semi-purified γ-secretase, MESO Scale ELISA), mouse brain membranes; type: biochemical; conditions: in vitro assay
Experimental: (§4) In Vitro APP Processing (Assay Quatitates Aβ Analytes Generated from a Recombinant APPC100Flag Substrate Incubated with Semi-Purified γ-Secretase)
(§5) The effect of compounds on the abundance of Aβ40 and Aβ42 peptides generated from exogenous C100Flag substrate by semi-purified γ-secretase was determined by MESO Scale ELISA. Generation of signal in this MESO Scale assay requires an anti-amyloid monoclonal antibody (clone 408) conjugated with streptavidin to bind to a biotin-coated plate. Specific [Ru(bpy)3]2+-labeled monoclonal antibodies for either Aβ40 (G210) or Aβ42 (12F4) subsequently generate an electrochemiluminescence signal upon electrochemical stimulation. The assay was accomplished by incubating compound, C100Flag substrate and CHAPSO-solubilized P2 membranes from HeLa cells or brains of mouse, rat, or dog. The reaction was then transferred to two different biotinylated microplates for detection of either Aβ40 or Aβ42.

[7] = molecular target: semi-purified γ-secretase; experiment: In vitro APP processing (C100Flag substrate, semi-purified γ-secretase, MESO Scale ELISA), rat brain membranes; type: biochemical; conditions: in vitro assay
Experimental: as §4, §5

[8] = molecular target: semi-purified γ-secretase; experiment: In vitro APP processing (C100Flag substrate, semi-purified γ-secretase, MESO Scale ELISA), dog brain membranes; type: biochemical; conditions: in vitro assay
Experimental: as §4, §5

[9] = Pharmacokinetics in Rhesus monkeys; type: in vivo; conditions: for AUC (Norm)(0-x) / half-life / clearance: 0.25 mg/kg; for half-life / bioavailability / clearance: rhesus monkey, plasma; for bioavailability: 0.25 mg/kg IV or PO; for clearance: intravenous
Experimental: as §3

[10] = Example A: PK profile in Rhesus monkeys, 30 mg/kg PO single dose; type: in vivo; conditions: rhesus monkey, plasma
Source text: (§6) Peak lowering of ˜46% was observed 24 hrs after each dose. […] Terminal phase pharmacokinetic characteristics of Example 1 in Rhesus monkey provide continuous inhibition over the course of one week achieving both an average as well as minimum reduction of CSF Aβ40 of >25%.

CSF Aβ40 = experiment: Example A: CSF Aβ40 reduction and tolerability in Rhesus monkeys, 30 mg/kg PO, one week; type: in vivo
Source text: as §6

CSF Aβ40 and Aβ42 = experiment: Example B: CSF Aβ40 and Aβ42 levels and tolerability in rhesus monkeys, once-weekly oral 30 mpk; type: in vivo; conditions: oral once-weekly 30 mpk
Experimental: Example 1 was administered orally to rhesus monkeys once-weekly at a dose of 30 mpk and levels of Aβ40 and Aβ42 in the cerebrospinal fluid (CSF) were monitored.

[11] = Aβ40, read-out: Tissue autonomous Aβ40, Mouse
[12] = Aβ40, read-out: Tissue autonomous Aβ40, Rat
[13] = Aβ40, read-out: Tissue autonomous Aβ40, Dog

IC50 ([1]; Aβ40, read-out: SY5Y Aβ40): 0.99 nM | IC50 ([1]; Aβ42, read-out: SY5Y Aβ42): 0.99 nM | IC50 [3]: 154 nM | AUC (Norm)(0-x) [4]: 6.0 µM·kg·h/mg | clearance [4]: 5.9 mL/min/kg | half-life [4]: 101 h | bioavailability [4]: 116% | clearance [5]: 0.383 mL/min/kg | half-life [5]: 254 h | bioavailability [5]: 55% | AUC (Norm)(0-x) [5]: 49.5 µM·kg·h/mg
SMILES: O=S(=O)(N[C@H]1CC[C@@](c2cc(F)ccc2F)(S(=O)(=O)c2ccc(C(F)(F)F)cc2)CC1)C(F)(F)F [Example 62 from U.S. Pat. No. 6,890,956]
Notch/Aβ40 [2]: 156

SMILES: O=S(=O)(N[C@H]1CC[C@@](c2cc(F)ccc2C(F)(F)F)(S(=O)(=O)c2ccc(C(F)(F)F)cc2)CC1)C(F)(F)F [Example 1, 1,1,1-trifluoro-N-(4-[5-fluoro-2-(trifluoromethyl)phenyl]-4-{[4-(trifluoromethyl)phenyl]sulfonyl}cyclohexyl)methanesulfonamide]
IC50 [6, 11]: 2.4 nM | IC50 [7, 12]: 1.4 nM | IC50 [8, 13]: 1.5 nM | IC50 ([1]; Aβ40, read-out: SY5Y Aβ40): 1.4 ± 0.9 nM | Notch/Aβ40 [2]: 370 | IC50 [3]: 518 nM | AUC (Norm)(0-x) [4]: 8.7 µM·kg·h/mg | clearance [4]: 3.4 mL/min/kg | half-life [4]: 126 h | bioavailability [4]: 64% | clearance [5]: 0.234 mL/min/kg | half-life [5]: 713 h | bioavailability [5]: 84% | AUC (Norm)(0-x) [5]: 99 µM·kg·h/mg | AUC (Norm)(0-x) [9]: 385 µM·kg·h/mg | half-life [9]: 228 h | bioavailability [9]: 84% | clearance [9]: 0.07 mL/min/kg | AUC(0-t) ([10]; read-out: AUC (0-24)): 138 µM·h | half-life ([10]; read-out: plasma t ½): > 168 h | minimum inhibition (CSF Aβ40) (CSF Aβ40; 24 hrs (day 1) to 144 hrs (day 6)): > 25% | Peak lowering of CSF Aβ40 (CSF Aβ40; 24 hrs after each dose): ~46% | average daily CSF Aβ40 reduction relative to baseline (CSF Aβ40; over a one week period (168 hrs; 7 days)): ~35% | tolerability (unformed stool) (CSF Aβ40; over the course of the study): no unformed stool or other tolerability issues | GI toxicity (CSF Aβ40 and Aβ42; over a 3 week period): no evidence of GI toxicity | average reduction in CSF Aβ40 levels relative to vehicle-treated controls (CSF Aβ40 and Aβ42; over a 3 week period): approximately 40% | average reduction in CSF Aβ42 levels relative to vehicle-treated controls (CSF Aβ40 and Aβ42; over a 3 week period): approximately 40% | side-effects leading to study termination (CSF Aβ40 and Aβ42; study terminated after 3 weeks): respiratory side-effects unconnected with Notch signaling

SMILES: O=S(=O)(N[C@H]1CC[C@@](c2cc(F)ccc2F)(S(=O)(=O)c2ccc(Cl)cc2)CC1)C(F)(F)F [MRK-560]
IC50 [6, 11]: 0.8 nM | IC50 ([6]; Aβ42, read-out: Tissue autonomous Aβ42, Mouse): 0.4 nM | IC50 [7, 12]: 1 nM | IC50 ([7]; Aβ42, read-out: Tissue autonomous Aβ42, Rat): 0.4 nM | IC50 [8, 13]: 5.2 nM | IC50 ([8]; Aβ42, read-out: Tissue autonomous Aβ42, Dog): 1.3 nM | IC50 ([1]; Aβ40, read-out: SY5Y Aβ40): 0.72 nM | IC50 ([1]; Aβ42, read-out: SY5Y Aβ42): 0.51 nM | Notch/Aβ40 [2]: 155 | IC50 [3]: 112 nM | clearance [4]: 2.2 mL/min/kg | half-life [4]: 26 h | bioavailability [4]: 67% | clearance [5]: 4.7 mL/min/kg | half-life [5]: 18 h | bioavailability [5]: 14% | AUC (Norm)(0-x) [5]: 1.1 µM·kg·h/mg | AUC (Norm)(0-x) [9]: 9.4 µM·kg·h/mg | half-life [9]: 12 h | bioavailability [9]: 23% | clearance [9]: 0.8 mL/min/kg
